Experimental data reported in ChEMBL document CHEMBL1777747, “Design and synthesis of an ER-specific fluorescent probe based on carboxylesterase activity with quinone methide cleavage process” (Bioorg Med Chem Lett, 2011).

Key:
[1] = organism: Sus scrofa; assay: Activity at porcine liver esterase assessed as amount of enzyme required to liberate 1 umol of resorufin/min from compound by fluorescence assay
[2] = biological target: T1, Cocaine esterase (Homo sapiens, UniProt O00748); assay: Activity at carboxylesterase in human HT-1080 cells assessed as accumulation of resorufin in nucleus at 50 uM after 120 mins by phase contrast microscopic analysis; type: ADME, cell-based; conditions: ht-1080, 2 h
T1 sequence (O00748 whole entry): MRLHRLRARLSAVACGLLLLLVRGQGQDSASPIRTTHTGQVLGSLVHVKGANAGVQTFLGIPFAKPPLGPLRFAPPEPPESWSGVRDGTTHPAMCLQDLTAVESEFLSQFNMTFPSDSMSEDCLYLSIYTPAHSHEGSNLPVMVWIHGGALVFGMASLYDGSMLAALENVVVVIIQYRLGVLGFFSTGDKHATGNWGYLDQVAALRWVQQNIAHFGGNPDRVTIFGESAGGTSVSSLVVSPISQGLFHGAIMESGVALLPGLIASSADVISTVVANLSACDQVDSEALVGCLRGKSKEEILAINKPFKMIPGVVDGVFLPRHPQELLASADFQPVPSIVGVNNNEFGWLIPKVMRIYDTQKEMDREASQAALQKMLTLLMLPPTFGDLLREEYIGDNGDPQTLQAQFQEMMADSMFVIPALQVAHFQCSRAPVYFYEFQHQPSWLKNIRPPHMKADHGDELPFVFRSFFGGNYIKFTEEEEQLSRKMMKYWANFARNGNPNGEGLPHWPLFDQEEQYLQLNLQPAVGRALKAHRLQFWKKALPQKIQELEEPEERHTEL

[3] = Activity at carboxylesterase in african green monkey COS1 cells assessed as accumulation of resorufin in nucleus at 50 uM after 120 mins by phase contrast microscopic analysis; type: ADME, cell-based; conditions: chlorocebus aethiops, cos-1, 2 h
[4] = biological target: T1, Cocaine esterase; assay: Activity at carboxylesterase in human HT-1080 cells assessed as accumulation of resorufin in endoplasmic reticulum at 50 uM after 120 mins by phase contrast microscopic analysis; type: ADME, cell-based; conditions: ht-1080, 2 h
[5] = Activity at carboxylesterase in african green monkey COS1 cells assessed as accumulation of resorufin in endoplasmic reticulum at 50 uM after 120 mins by phase contrast microscopic analysis; type: ADME, cell-based; conditions: chlorocebus aethiops, cos-1, 2 h
[6] = test system: HT-1080; assay: Cytotoxicity against human HT1080 cells by trypan blue method; type: cell-based
[7] = test system: COS-1; assay: Cytotoxicity against african green monkey COS1 cells by trypan blue method; type: cell-based; conditions: chlorocebus aethiops

Activity [1]: 0.05 U/mg | Activity [2]: Active | Activity [3]: Active | Activity [4]: Active | Activity [5]: Active
SMILES: CCCC(=O)Oc1ccc(COc2ccc3nc4ccc(=O)cc-4oc3c2)cc1
Activity [6]: Non-toxic | Activity [7]: Non-toxic
